Here are results for 12 compounds from DBAASP.

Converted amounts (≈) assume the structure as drawn. “And” between values parts separate entries of the source, which are not always exact repeats. Identical values can stand only once.

Test systems include Aeromonas hydrophila; Vibrio harveyi; Bacillus subtilis 168; Staphylococcus aureus; Pseudomonas aeruginosa; Escherichia coli B; Escherichia coli MG1655.
Holding throughout (assay): ≥ marks a high value that may be exact or a test limit, other limits are often not marked, values filed in µg/mL are converted to µM
Experiment [1] deals with Micrococcus luteus CCM 144.
Experiment [2] has as its system Candida albicans F7-39/IDE99.
In experiment [3] the test system is Pseudomonas syringae pv. syringae EPS 94.
Experiment [4] has as its system Erwinia amylovora PMV 6076.
Experiment [5] relates to Staphylococcus aureus ATCC BAA-1556.
In experiment [6] the test system is Candida albicans ATCC 90028.
The subject of experiment [7] is Klebsiella pneumoniae ATCC 700603.
Experiment [8] concerns Escherichia coli ATCC 25922.
The subject of experiment [9] is Cryptococcus neoformans ATCC 208821.
Experiment [10] deals with Pseudomonas aeruginosa ATCC 27853.
Experiment [11] concerns Acinetobacter baumannii ATCC 19606.
The test system of experiment [12] is Staphylococcus aureus ATCC 43300.

On to `CC[C@H](C)[C@H](NC(=O)[C@H](C)NC(=O)[C@H](CCCN=C(N)N)NC(=O)[C@H](Cc1cnc[nH]1)NC(=O)[C@@H](NC(=O)[C@H](C)NC(=O)[C@H](CCCN=C(N)N)NC(=O)[C@@H](NC(=O)CNC(=O)[C@H](Cc1cnc[nH]1)NC(=O)[C@H](CO)NC(=O)[C@@H](NC(=O)[C@H](Cc1c[nH]c2ccccc12)NC(=O)CNC(=O)[C@@H](NC(=O)[C@@H](NC(=O)[C@H](Cc1cnc[nH]1)NC(=O)[C@H](Cc1cnc[nH]1)NC(=O)[C@@H](NC(=O)[C@@H](N)Cc1ccccc1)[C@@H](C)CC)[C@@H](C)CC)[C@@H](C)CC)[C@@H](C)CC)C(C)C)[C@@H](C)CC)C(=O)N[C@@H](C)C(N)=O` [FIHHIIGWISHGVRAIHRAIA], for which the MIC in the experiment with Aeromonas hydrophila and in the experiment on Vibrio harveyi was 16 µM (≈ 38.5 µg/mL) throughout.
For the compound `CC[C@H](C)[C@H](NC(=O)[C@H](C)NC(=O)CNC(=O)[C@H](Cc1c[nH]c2ccccc12)NC(=O)[C@H](CC(N)=O)NC(=O)[C@@H](N)CC(C)C)C(=O)N[C@@H](CC(C)C)C(=O)N[C@@H](CCCCN)C(=O)N[C@@H](Cc1cnc[nH]1)C(=O)N[C@H](C(=O)N[C@@H](CCCCN)C(=O)N[C@@H](CCCCN)C(N)=O)[C@@H](C)CC` [LNWGAILKHIKK], the MIC in experiment [1] was 10.8 µM (≈ 15.3 µg/mL); with Bacillus subtilis 168, 13.3 µM (≈ 18.9 µg/mL); in the experiment on Staphylococcus aureus, 100 µM (≈ 142 µg/mL); in experiment [2], 11.3 µM (≈ 16 µg/mL); in the experiment with Pseudomonas aeruginosa, 93.3 µM (≈ 132 µg/mL); against Escherichia coli B, no less than 70 µM.
Consider `CC[C@H](C)[C@H](NC(=O)[C@H](C)NC(=O)[C@H](CCCN=C(N)N)NC(=O)[C@@H](NC(=O)CNC(=O)[C@H](Cc1cnc[nH]1)NC(=O)[C@H](CO)NC(=O)[C@@H](NC(=O)[C@H](Cc1c[nH]c2ccccc12)NC(=O)CNC(=O)[C@@H](NC(=O)[C@@H](NC(=O)[C@H](Cc1cnc[nH]1)NC(=O)[C@H](Cc1cnc[nH]1)NC(=O)[C@@H](NC(=O)[C@@H](N)Cc1ccccc1)[C@@H](C)CC)[C@@H](C)CC)[C@@H](C)CC)[C@@H](C)CC)C(C)C)C(=O)N[C@@H](C)C(=O)N[C@@H](CCCN=C(N)N)C(=O)N[C@@H](C)C(=O)N[C@H](C(=O)N[C@@H](Cc1cnc[nH]1)C(N)=O)[C@@H](C)CC` [FIHHIIGWISHGVRAIARAIH], for which the MIC was no less than 128 µM in the experiment on Aeromonas hydrophila; 16 µM (≈ 38.5 µg/mL) against Vibrio harveyi; 8 µM and 16 µM in the experiment with Escherichia coli MG1655.
Turning to `CC[C@H](C)[C@H](NC(=O)[C@H](CCCCN)NC(=O)[C@H](CCCCN)NC(=O)[C@H](Cc1ccccc1)NC(=O)[C@H](CC(C)C)NC(=O)[C@H](CCCCN)NC(=O)[C@H](CCCCN)NC(=O)CN)C(=O)N[C@@H](CC(C)C)C(=O)N[C@@H](CCCCN)C(=O)N[C@@H](Cc1ccc(O)cc1)C(=O)N[C@@H](CC(C)C)C(=O)N[C@@H](C)C(=O)NCC(=O)N1CCC[C@H]1C(=O)N[C@@H](C)C(=O)N[C@@H](CCCCN)C(=O)N[C@@H](Cc1ccccc1)C(=O)N[C@@H](CC(C)C)C(=O)N[C@@H](Cc1cnc[nH]1)C(=O)N[C@@H](CO)C(=O)N[C@@H](C)C(=O)N[C@@H](CCCCN)C(=O)O` [GKKLFKKILKYLAGPAKFLHSAK], the figures for the MIC in experiment [3] and in [4] were 3.54 µM (≈ 9.15 µg/mL) and 1.77 µM (≈ 4.57 µg/mL), respectively.
Turning to `CC[C@H](C)[C@H](NC(=O)[C@H](C)NC(=O)[C@H](CCCN=C(N)N)NC(=O)[C@H](Cc1cnc[nH]1)NC(=O)[C@@H](NC(=O)[C@H](C)NC(=O)[C@H](CCCN=C(N)N)NC(=O)[C@@H](NC(=O)CNC(=O)[C@H](C)NC(=O)[C@H](CO)NC(=O)[C@@H](NC(=O)[C@H](Cc1c[nH]c2ccccc12)NC(=O)CNC(=O)[C@@H](NC(=O)[C@@H](NC(=O)[C@H](Cc1cnc[nH]1)NC(=O)[C@H](Cc1cnc[nH]1)NC(=O)[C@@H](NC(=O)[C@@H](N)Cc1ccccc1)[C@@H](C)CC)[C@@H](C)CC)[C@@H](C)CC)[C@@H](C)CC)C(C)C)[C@@H](C)CC)C(=O)N[C@@H](Cc1cnc[nH]1)C(N)=O` [FIHHIIGWISAGVRAIHRAIH], the MIC against Aeromonas hydrophila was no less than 128 µM; in the experiment on Vibrio harveyi, no less than 64 µM; in the experiment with Escherichia coli MG1655, 8 µM and 16 µM.
Compound `CC[C@H](C)[C@H](NC(=O)[C@H](Cc1c[nH]c2ccccc12)NC(=O)[C@H](CCCN=C(N)N)NC(=O)[C@H](CCCN=C(N)N)NC(=O)[C@@H](N)Cc1c[nH]c2ccccc12)C(=O)N[C@@H](CCCN=C(N)N)C(=O)N[C@@H](Cc1c[nH]c2ccccc12)C(=O)N[C@@H](CC(C)C)C(N)=O` [WRRWIRWL] had an MIC in experiment [5] of 25 µM (≈ 31.8 µg/mL).
On to `C[C@H](NC(=O)[C@@H](NC(=O)[C@H](CCCN=C(N)N)NC(=O)[C@H](CO)NC(=O)CNC(=O)[C@H](CCCN=C(N)N)NC(=O)[C@H](CCC(N)=O)NC(=O)[C@@H](NC(=O)[C@H](CO)NC(=O)[C@H](CCC(N)=O)NC(=O)CNC(=O)[C@H](Cc1cnc[nH]1)NC(=O)CNC(=O)[C@H](CO)NC(=O)[C@H](Cc1cnc[nH]1)NC(=O)[C@H](C)NC(=O)[C@@H](N)Cc1cnc[nH]1)[C@@H](C)O)[C@@H](C)O)C(=O)NCC(=O)N[C@@H](CCCN=C(N)N)C(=O)O` [HAHSGHGQSTQRGSRTAGR], for which the MIC in experiment [6] is 16.1 µM (≈ 32 µg/mL); in experiment [7] it was greater than 16.1 µM; in [8], greater than 16.1 µM; in experiment [9], 16.1 µM (≈ 32 µg/mL); in experiment [10], greater than 16.1 µM; in experiment [11], greater than 16.1 µM. In experiment [12], this compound came in with an MIC greater than 16.1 µM.
In the case of `CC(C)C[C@H](NC(=O)[C@H](CC(C)C)NC(=O)[C@H](Cc1c[nH]c2ccccc12)NC(=O)[C@H](CCCCN)NC(=O)[C@H](CC(C)C)NC(=O)[C@H](CC(C)C)NC(=O)[C@H](CCCCN)NC(=O)[C@@H](N)CCCCN)C(N)=O` [KKLLKWLL], the MIC in [5] is no less than 100 µM.
As for `CC(C)C[C@H](NC(=O)CNC(=O)[C@H](CO)NC(=O)CNC(=O)[C@H](CCCN=C(N)N)NC(=O)[C@H](CCCN=C(N)N)NC(=O)CN)C(=O)NCC(=O)N[C@@H](CCCN=C(N)N)C(=O)N[C@@H](CO)C(=O)N[C@@H](CO)C(=O)N[C@@H](CO)C(=O)N[C@@H](CCCN=C(N)N)C(=O)NCC(=O)N[C@@H](CCC(N)=O)C(=O)N[C@@H](CCCN=C(N)N)C(=O)NCC(=O)N[C@@H](CO)C(=O)NCC(=O)N[C@@H](CO)C(=O)NCC(=O)N[C@@H](CCCN=C(N)N)C(=O)O` [GRRGSGLGRSSSRGQRGSGSGR], the MIC is 14.7 µM (≈ 32 µg/mL) in experiment [6]; greater than 14.7 µM in experiment [7]; greater than 14.7 µM in experiment [8]; 14.7 µM (≈ 32 µg/mL) in experiment [9]; greater than 14.7 µM in experiment [10]; greater than 14.7 µM in experiment [11]. For the same compound, in experiment [12], the MIC was greater than 14.7 µM.
The compound `CC(C)C[C@H](NC(=O)[C@H](Cc1c[nH]c2ccccc12)NC(=O)[C@H](Cc1c[nH]c2ccccc12)NC(=O)[C@H](CC(C)C)NC(=O)[C@H](Cc1c[nH]c2ccccc12)NC(=O)[C@H](Cc1c[nH]c2ccccc12)NC(=O)[C@H](CC(C)C)NC(=O)[C@H](CCCN=C(N)N)NC(=O)[C@@H](N)Cc1c[nH]c2ccccc12)C(N)=O` [WRLWWLWWL] gave an MIC in [5] of 6.25 µM (≈ 9.02 µg/mL).
For `CC(C)C[C@H](NC(=O)CNC(=O)[C@H](C)NC(=O)CNC(=O)[C@H](Cc1c[nH]c2ccccc12)NC(=O)[C@H](CC(N)=O)NC(=O)[C@@H](N)CC(C)C)C(=O)N[C@@H](CCCCN)C(=O)N[C@@H](Cc1cnc[nH]1)C(=O)NCC(=O)NCC(=O)N[C@@H](CCCCN)C(N)=O` [LNWGAGLKHGGK], the MIC in experiment [1] was no less than 100 µM; against Bacillus subtilis 168, no less than 100 µM; in the experiment with Staphylococcus aureus, greater than 100 µM; in experiment [2], no less than 100 µM; against Pseudomonas aeruginosa, greater than 100 µM; against Escherichia coli B, no less than 100 µM.
In the case of `CC[C@H](C)[C@H](NC(=O)[C@@H](N)Cc1c[nH]c2ccccc12)C(=O)N[C@@H](CCCN=C(N)N)C(=O)N[C@@H](Cc1c[nH]c2ccccc12)C(=O)N[C@@H](CC(C)C)C(N)=O` [WIRWL], the MIC in experiment [5] was no less than 100 µM.

A word on the MIC: it is the lowest concentration found to suppress growth.
